In US5116833A, “Antibiotic C-3 dithioacetal-substituted carbapenem compounds, compositions, and methods of use thereof” (Bristol-Myers Squibb Company, priority 1990, dated 1992):
Converted amounts (≈) assume the structure as drawn.

What was measured:
[1] = Half-life (T1/2) in solution at stated pH (chemical stability); type: physicochemical
[2] = Blood levels and half-life after oral administration in mice; type: in vivo; conditions: mouse, 50 mg/kg
Description: (§1) In order to illustrate the potent antibacterial activity and significant oral bioavailability of the carbapenems of the present invention, Tables I, II and III show data for in vitro activities (MIC), oral in vivo activities (PD50) and blood levels after oral administration of the representative drugs (Cmax, t1/2 and AUC), respectively. Blood levels and the half-life of selected compounds of the present invention after oral administration at 50 mg/kg in mice is shown in Table III.

P. mirabalis A-9900 = assay: Protective effect in the oral treatment of infected mice, P. mirabalis A-9900; type: in vivo; conditions: Mus musculus, intraperitoneal challenge P. mirabalis A-9900, 4 × 10^6 organisms, read-out: PD50/Treatment
Description: as §1, with “respectively.” for “respectively. Blood levels and the half-life of selected compounds of the present invention after oral administration at 50 mg/kg in mice is shown in Table III.”
(§2) The in vivo therapeutic efficacy of the representative compounds after oral administration to mice infected intraperitoneally with 0.5 ml of various bacterial suspension is shown in Table II. The values are given in PD50 (dose in mg/kg to give protection to 50% of the infected mice).

E. coli A-15119 = assay: Protective effect in the oral treatment of infected mice, E. coli A-15119; type: in vivo; conditions: Escherichia coli, A15119, intraperitoneal challenge E. coli A-15119, 6 × 10^6 organisms, read-out: PD50/Treatment
Description: as §1, with “respectively.” for “respectively. Blood levels and the half-life of selected compounds of the present invention after oral administration at 50 mg/kg in mice is shown in Table III.”
as §2

S. pneumoniae A-9585 = assay: Protective effect in the oral treatment of infected mice, S. pneumoniae A-9585; type: in vivo; conditions: Streptococcus pneumoniae, A9585, intraperitoneal challenge S. pneumoniae A-9585, 5 × 10^3 organisms, read-out: PD50/Treatment
Description: as §1, with “respectively.” for “respectively. Blood levels and the half-life of selected compounds of the present invention after oral administration at 50 mg/kg in mice is shown in Table III.”
as §2

Ps. aeur. A9843 = assay: Minimal Inhibitory Concentration, microtiter broth dilution, Ps. aeur. A9843; type: cell-based; conditions: Nutrient broth, approximately 500,000 CFU/ml, 35° C. overnight
Description: as §1, with “respectively.” for “respectively. Blood levels and the half-life of selected compounds of the present invention after oral administration at 50 mg/kg in mice is shown in Table III.”
(§3) The determination was done by using microtiter broth dilution using Nutrient broth and final bacterial inoculum of approximately 500,000 CFU/ml from overnight cultures of the bacterium. The microtiter trays were then incubated at 35° C. overnight. The MIC's were determined in μg/ml as the lowest concentration of the drug which inhibits visible growth of the bacterium.

Str. Pneu. A9525 = assay: Minimal Inhibitory Concentration, microtiter broth dilution, Str. Pneu. A9525; type: cell-based; conditions: Nutrient broth, approximately 500,000 CFU/ml, 35° C. overnight
Description: as §1, with “respectively.” for “respectively. Blood levels and the half-life of selected compounds of the present invention after oral administration at 50 mg/kg in mice is shown in Table III.”
as §3

E. coli A15119 = assay: Minimal Inhibitory Concentration, microtiter broth dilution, E. coli A15119; type: cell-based; conditions: Escherichia coli, Nutrient broth, approximately 500,000 CFU/ml, 35° C. overnight
Description: as §1, with “respectively.” for “respectively. Blood levels and the half-life of selected compounds of the present invention after oral administration at 50 mg/kg in mice is shown in Table III.”
as §3

Staph. aur. PenR = assay: Minimal Inhibitory Concentration, microtiter broth dilution, Staph. aur. PenR; type: cell-based; conditions: Nutrient broth, approximately 500,000 CFU/ml, 35° C. overnight
Description: as §1, with “respectively.” for “respectively. Blood levels and the half-life of selected compounds of the present invention after oral administration at 50 mg/kg in mice is shown in Table III.”
as §3

For `CSC(C)SC1=C(C(=O)O)N2C(=O)[C@H]([C@@H](C)O)[C@H]2[C@H]1C` (single isomer, unassigned) [Iv-A], the half-life ([1]; pH 2, 37° C.) was 20 min.
`CSC(C)SC1=C(C(=O)O)N2C(=O)[C@H]([C@@H](C)O)[C@H]2[C@H]1C` (single isomer, unassigned) [Iv-B] gave a T1/2 ([1]; pH 2, 37° C.) of 20 min and a half-life ([1]; pH 7.4, 37° C.) of 3360 min.
In the case of `CSCSC1=C(C(=O)O)N2C(=O)[C@H]([C@@H](C)O)[C@H]2C1` [Ia, Potassium or Sodium (5R,6S)-6-[1'(R)-hydroxyethyl]-3-[[(methylthio)methyl]thio]-7-oxo-1-azabicyclo[3.2.0]hept-2-ene-2-carboxylate], the half-life ([1]; pH 7.4) is reported as 1200 min.
`CSCSC1=C(C(=O)O)N2C(=O)[C@H]([C@@H](C)O)[C@H]2[C@H]1C` [Ib''] showed a half-life ([1]; pH 2) of 18.8 min, a half-life ([1]; pH 7.4) of 4500 min and an AUC [2] of 21000 ng·h/mL. The Cmax [2] was 27000 ng/mL, the half-life [2] was 25 min and the ED50 (P. mirabalis A-9900) was 3.6 mg/kg. It also gave an ED50 (E. coli A-15119) of 3.5 mg/kg and an ED50 (S. pneumoniae A-9585) of 1.4 mg/kg.
With `C[C@@H](O)[C@H]1C(=O)N2C(C(=O)O)=C(SCSc3ccc(C(=O)NN)cc3)[C@H](C)[C@H]12` [Ibb, (4R,5S,6S)-3-[[[[(p-hydrazinocarbonyl)phenyl]thio]methyl]thio]-6-[1'(R)-hydroxyethyl]-4-methyl-7-oxo-1-azabicyclo[3.2.0]hept-2-ene-2-carboxylate] the Cmax [2] was < 1000 ng/mL and the ED50 (S. pneumoniae A-9585) was 16.5 mg/kg.
For `C[C@@H](O)[C@H]1C(=O)N2C(C(=O)O)=C(SCSc3ccncc3)C[C@H]12` [Ic, Potassium or sodium (5R,6S)-6-[1'(R)-hydroxyethyl]-3-[[[(pyridin-4-yl)thio]methyl]thio]-7-oxo-1-azabicyclo[3.2.0]hept-2-ene-2-carboxylate], the half-life ([1]; pH 7.4) was 900 min.
`Cc1nnc(SCSC2=C(C(=O)O)N3C(=O)[C@H]([C@@H](C)O)[C@H]3[C@H]2C)o1` [Icc, (4R,5S,6S)-6-[1'(R)-hydroxyethyl]-4-methyl-3-[[[(5-methyl-1,3,4-oxadiazol-2-yl)thio]methyl]thio]-7-oxo-1-azabicyclo-[3.2.0]hept-2-ene-2-carboxylate] showed an MIC (Ps. aeur. A9843) of 32 µg/mL (≈ 86.2 µM), an AUC [2] of 11000 ng·h/mL and a Cmax [2] of 20000 ng/mL. The half-life [2] was 14 min, the MIC (Str. Pneu. A9525) was 1 ng/mL (≈ 0.00269 µM) and the ED50 (E. coli A-15119) was 1.4 mg/kg. For the same molecule, the ED50 (S. pneumoniae A-9585) was 0.2 mg/kg, the MIC (E. coli A15119) was 4 ng/mL (≈ 0.0108 µM) and the MIC (Staph. aur. PenR) was 0.03 µg/mL (≈ 0.0808 µM).
With `C[C@@H](O)[C@H]1C(=O)N2C(C(=O)O)=C(SCSc3ccccc3)[C@H](C)[C@H]12` [Id, (4R,5S,6S)-6-[1'(R)-hydroxyethyl]-4-methyl-3-[[(phenylthio)methyl]thio]-7-oxo-1-azabicyclo[3.2.0]hept-2-ene-2-carboxylate] the half-life ([1]; pH 2) was 18.8 min and the half-life ([1]; pH 7.4) was 6000 min.
Work on `Cc1nnc(SCSC2=C(C(=O)O)N3C(=O)[C@H]([C@@H](C)O)[C@H]3[C@H]2C)s1` [Idd, (4R,5S,6S)-6-[1'(R)-hydroxyethyl]-4-methyl-3-[[[(5-methyl-1,3,4-thiadiazol-2-yl)thio]methyl]thio]-7-oxo-1-azabicyclo[3.2.0]hept-2-ene-2-carboxylate] yielded an MIC (Ps. aeur. A9843) of 32 µg/mL (≈ 82.6 µM), an AUC [2] of 10000 ng·h/mL and a Cmax [2] of 12000 ng/mL. For the same molecule, the half-life [2] was 24 min, the MIC (Str. Pneu. A9525) was 1 ng/mL (≈ 0.00258 µM) and the ED50 (E. coli A-15119) was 3.85 mg/kg. It also gave an ED50 (S. pneumoniae A-9585) of 0.3 mg/kg, an MIC (E. coli A15119) of 8 ng/mL (≈ 0.0206 µM) and an MIC (Staph. aur. PenR) of 0.016 µg/mL (≈ 0.0413 µM).
Work on `C[C@@H](O)[C@H]1C(=O)N2C(C(=O)O)=C(SCSc3ccccn3)C[C@H]12` [Ie, Sodium (5R,6S)-6-[1'(R)-1-hydroxyethyl]-3-[[[(pyridin-2-yl)thio]methyl]thio]-7-oxo-1-azabicyclo[3.2.0]hept-2-ene-2-carboxylate] yielded a half-life ([1]; pH 7.4) of 1140 min.
For `C[C@@H](O)[C@H]1C(=O)N2C(C(=O)O)=C(SCSc3ccccn3)[C@H](C)[C@H]12` [If, Sodium (4R,5S,6S)-6-[1'(R)-hydroxyethyl]-4-methyl-3-[[[(pyridin-2-yl)thio]methyl]thio]-7-oxo-1-azabicyclo[3.2.0]hept-2-ene-2-carboxylate], the half-life ([1]; pH 2) was 36 min and the half-life ([1]; pH 7.4) was 4740 min.
`C[C@@H](O)[C@H]1C(=O)N2C(C(=O)O)=C(SCSc3ccncc3)[C@H](C)[C@H]12` [Ig, (4R,5S,6S)-6-[1'(R)-hydroxyethyl]-4-methyl-3-[[[(pyridin-4-yl)thio]methyl]thio]-7-oxo-1-azabicyclo[3.2.0]hept-2-ene-2-carboxylate] gave a half-life ([1]; pH 2) of 34 min.
For `C[C@@H](O)[C@H]1C(=O)N2C(C(=O)O)=C(SCSc3cccnc3)C[C@H]12` [Ih, Sodium (5R,6S)-6-[1'(R)-hydroxyethyl]-3-[[[(pyridin-3-yl)thio]methyl]thio]-7-oxo-1-azabicyclo[3.2.0]hept-2-ene-2-carboxylate], the half-life ([1]; pH 2) was 2 min and the half-life ([1]; pH 7.4) was 1320 min.
In the case of `C[C@@H](O)[C@H]1C(=O)N2C(C(=O)O)=C(SCSc3cccnc3)[C@H](C)[C@H]12` [Ii, (4R,5S,6S)-6-[1'(R)-hydroxyethyl]-4-methyl-3-[[[(pyridin-3-yl)thio]methyl]thio]-7-oxo-1-azabicyclo[3.2.0]hept-2-ene-2-carboxylate], the half-life ([1]; pH 2) is reported as 35 min and the half-life ([1]; pH 7.4) is reported as 4440 min.
`C[C@@H](O)[C@H]1C(=O)N2C(C(=O)O)=C(SCSc3ccc(Cl)cc3)C[C@H]12` [Ij, (5R,6S)-6-[1'(R)-hydroxyethyl]-3-[[[(p-chlorophenyl)thio]methyl]thio]-7-oxo-1-azabicyclo[3.2.0]hept-2-ene-2-carboxylate] showed a half-life ([1]; pH 7.4) of 1560 min.
`C[C@@H](O)[C@H]1C(=O)N2C(C(=O)O)=C(SCSc3ccc(Cl)cc3)[C@H](C)[C@H]12` [Ik, (4R,5S,6S)-6-[1' (R)-hydroxyethyl]-4-methyl-3-[[[(p-chlorophenyl)thio]methyl]thio]-7-oxo-1-azabicyclo[3.2.0]hept-2-ene-2-carboxylate] showed an MIC (Ps. aeur. A9843) of 63 µg/mL (≈ 158 µM), a half-life ([1]; pH 7.4) of 5820 min and an AUC [2] of 34000 ng·h/mL. It also gave a Cmax [2] of 40000 ng/mL, a half-life [2] of 33 min and an MIC (Str. Pneu. A9525) of 4 ng/mL (≈ 0.01 µM). It also gave an MIC (E. coli A15119) of 2000 ng/mL (≈ 5 µM) and an MIC (Staph. aur. PenR) of 0.03 µg/mL (≈ 0.075 µM).
In the case of `C[C@@H](O)[C@H]1C(=O)N2C(C(=O)O)=C(SC[S+](C)[O-])[C@H](C)[C@H]12` (some centres unmarked) [Im], the half-life ([1]; pH 7.4) is reported as 2760 min.
Molecule `C[C@@H](O)[C@H]1C(=O)N2C(C(=O)O)=C(SC[S+]([O-])c3ccc(Cl)cc3)[C@H](C)[C@H]12` (stereo partly drawn) [In, (4R,5S,6S)-3-[[[(p-chlorophenyl)sulfinyl]methyl]thio]-6-[1'(R)-hydroxyethyl]-4-methyl-7-oxo-1-azabicyclo[3.2.0]hept-2-ene-2-carboxylate] has a half-life ([1]; pH 7.4, 37° C.) of 6360 min.
Work on `C[C@@H](O)[C@H]1C(=O)N2C(C(=O)O)=C(SCSCc3cccnc3)[C@H](C)[C@H]12` [Io, (4R,5S,6S)-6-[1'(R)-hydroxyethyl]-4-methyl-3-[[[[(pyridin-3-yl)methyl]thio]methyl]thio]-7-oxo-1-azabicyclo-[3.2.0]hept-2-ene-2-carboxylate] yielded a half-life ([1]; pH 7.4, 37° C.) of 4620 min.
Work on `C[C@@H](O)[C@H]1C(=O)N2C(C(=O)O)=C(SC[S+]([O-])Cc3cccnc3)[C@H](C)[C@H]12` (stereo partly drawn) [Ip, (4R,5S,6S)-6-[1'(R)-hydroxyethyl]-4-methyl-3-[[[[(pyridin-3-yl)methyl]sulfinyl]methyl]thio]-7-oxo-1-azabicyclo[3.2.0]hept-2-ene-2-carboxylate] yielded a half-life ([1]; pH 7.4, 37° C.) of 2580 min.
For `C[C@@H](O)[C@H]1C(=O)N2C(C(=O)O)=C(SCSc3ccc(Cl)c(Cl)c3)[C@H](C)[C@H]12` [Iq, (4R,5S,6S)-3-[[[(3,4-dichlorophenyl)thio]methyl]thio]-6-[1'(R)-hydroxyethyl]-4-methyl-7-oxo-1-azabicyclo-[3.2.0]hept-2-ene-2-carboxylate], the half-life ([1]; pH 7.4, 37° C.) was 5940 min, the AUC [2] was 24000 ng·h/mL and the Cmax [2] was 33000 ng/mL. The half-life [2] was 25 min and the ED50 (E. coli A-15119) was 25 mg/kg.
For `C[C@@H](O)[C@H]1C(=O)N2C(C(=O)O)=C(SCSc3c(F)c(F)c(F)c(F)c3F)[C@H](C)[C@H]12` [Ir, Sodium (4R,5S,6S)-6-[1'(R)-hydroxyethyl]-4-methyl-3-[[[(2,3,4,5,6-pentafluorophenyl)thio]methyl]thio]-7-oxo-1-azabicyclo[3.2.0]hept-2-ene-2-carboxylate], the half-life ([1]; pH 7.4, 37° C.) was 2460 min.
